Assay results taken from US9873709B2 (priority 2013, dated 2018).

test system: JAK1-dependent STAT6 phosphorylation downstream of IL-13 stimulation in TF-1 human erythroleukemia cells; test: cells; conditions: TF-1, read-out: IL-13-pSTAT6 IC50

| IC50 [nM] | Compound |
| --- | --- |
| 15.4 | Cc1ccc(CC2CCN(C(=O)c3ccc(Nc4nc5c(C6=CCN(C(=O)CCC(F)(F)F)CC6)cccn5n4)cc3)C2)nc1 (stereo not drawn) [Example 2-218, 4,4,4-trifluoro-1-[4-[2-[4-[3-[(5-methyl-2-pyridyl)methyl]pyrrolidine-1-carbonyl]anilino]-[1,2,4]triazolo[1,5-a]pyridin-8-yl]-3,6-dihydro-2H-pyridin-1-yl]butan-1-one] |
| 157 | CCOC(=O)N1CC=C(c2cccn3nc(Nc4ccc(C(=O)NCCNC)cc4)nc23)CC1 [Example 2-230, ethyl 4-[2-[4-[2-(methylamino)ethylcarbamoyl]anilino]-[1,2,4]triazolo[1,5-a]pyridin-8-yl]-3,6-dihydro-2H-pyridine-1-carboxylate] |
| 268 | CCOC(=O)N1CC=C(c2cccn3nc(Nc4ccc(C(=O)NC5CCNC5)cc4)nc23)CC1 (stereo not drawn) [Example 2-231, ethyl 4-[2-[4-(pyrrolidin-3-ylcarbamoyl)anilino]-[1,2,4]triazolo[1,5-a]pyridin-8-yl]-3,6-dihydro-2H-pyridine-1-carboxylate] |
| 288 | CCOC(=O)N1CC=C(c2cccn3nc(Nc4ccc(C(=O)N5CCCCC5c5cccnc5)cc4)nc23)CC1 (stereo not drawn) [Example 2-232, ethyl 4-[2-[4-[2-(3-pyridyl)piperidine-1-carbonyl]anilino]-[1,2,4]triazolo[1,5-a]pyridin-8-yl]-3,6-dihydro-2H-pyridine-1-carboxylate] |
| 23.1 | CCOC(=O)N1CC=C(c2cccn3nc(Nc4ccc(C(=O)N5CCCCC5Cc5ccccn5)cc4)nc23)CC1 (stereo not drawn) [Example 2-235, ethyl 4-[2-[4-[2-(2-pyridylmethyl)piperidine-1-carbonyl]anilino]-[1,2,4]triazolo[1,5-a]pyridin-8-yl]-3,6-dihydro-2H-pyridine-1-carboxylate] |
| 63.7 | CCOC(=O)N1CC=C(c2cccn3nc(Nc4ccc(C(=O)N5CCCC(O)(CN6CCCC6)CC5)cc4)nc23)CC1 (stereo not drawn) [Example 2-241, ethyl 4-[2-[4-[4-hydroxy-4-(pyrrolidin-1-ylmethyl)azepane-1-carbonyl]anilino]-[1,2,4]triazolo[1,5-a]pyridin-8-yl]-3,6-dihydro-2H-pyridine-1-carboxylate] |
| 12.2 | CCOC(=O)N1CC=C(c2cccn3nc(Nc4ccc(C(=O)NCc5ccc(C)nc5)cc4)nc23)CC1 [Example 2-245, ethyl 4-[2-[4-[(6-methyl-3-pyridyl)methylcarbamoyl]anilino]-[1,2,4]triazolo[1,5-a]pyridin-8-yl]-3,6-dihydro-2H-pyridine-1-carboxylate] |
| 76.7 | CCOC(=O)N1CC=C(c2cccn3nc(Nc4ccc(C(=O)N[C@H]5CCCNC5)cc4)nc23)CC1 [Example 2-250, ethyl 4-[2-[4-[[(3S)-3-piperidyl]carbamoyl]anilino]-[1,2,4]triazolo[1,5-a]pyridin-8-yl]-3,6-dihydro-2H-pyridine-1-carboxylate] |
| 4.2 | O=C(CCC(F)(F)F)N1CC=C(c2cccn3nc(Nc4ccc(C(=O)N5CCCCC5Cc5ccccn5)cc4)nc23)CC1 (stereo not drawn) [Example 2-265, 4,4,4-trifluoro-1-[4-[2-[4-[2-(2-pyridylmethyl)piperidine-1-carbonyl]anilino]-[1,2,4]triazolo[1,5-a]pyridin-8-yl]-3,6-dihydro-2H-pyridin-1-yl]butan-1-one] |

The next lines start with the compound.

| Compound | IC50 [nM] |
| --- | --- |
| O=C(NCCc1cccnc1)c1ccc(Nc2nc3c(C4=CCN(C(=O)CCC(F)(F)F)CC4)cccn3n2)cc1 [Example 2-220, N-[2-(3-pyridyl)ethyl]-4-[[8-[1-(4,4,4-trifluorobutanoyl)-3,6-dihydro-2H-pyridin-4-yl]-[1,2,4]triazolo[1,5-a]pyridin-2-yl]amino]benzamide] | 5.8 |
| CN1CCC(N(C)C(=O)c2ccc(Nc3nc4c(C5=CCN(C(=O)NCc6ccccc6)CC5)cccn4n3)cc2)CC1 [Example 2-222, N-benzyl-4-[2-[4-[methyl-(1-methyl-4-piperidyl)carbamoyl]anilino]-[1,2,4]triazolo[1,5-a]pyridin-8-yl]-3,6-dihydro-2H-pyridine-1-carboxamide] | 468 |
| CC1CC1C(=O)N1CC=C(c2cccn3nc(Nc4ccc(C(=O)N(C)C5CCN(C)CC5)cc4)nc23)CC1 (stereo not drawn) [Example 2-223, N-methyl-4-[[8-[1-(2-methylcyclopropanecarbonyl)-3,6-dihydro-2H-pyridin-4-yl]-[1,2,4]triazolo[1,5-a]pyridin-2-yl]amino]-N-(1-methyl-4-piperidyl)benzamide] | 17.3 |
| COC(=O)N1CC=C(c2cccn3nc(Nc4ccc(C(=O)N(C)C5CCN(C)CC5)cc4)nc23)CC1 [Example 2-224, methyl 4-[2-[4-[methyl-(1-methyl-4-piperidyl)carbamoyl]anilino]-[1,2,4]triazolo[1,5-a]pyridin-8-yl]-3,6-dihydro-2H-pyridine-1-carboxylate] | 204 |
| CN1CCC(N(C)C(=O)c2ccc(Nc3nc4c(C5=CCN(C(=O)OCC(F)F)CC5)cccn4n3)cc2)CC1 [Example 2-225, 2,2-difluoroethyl 4-[2-[4-[methyl-(1-methyl-4-piperidyl)carbamoyl]anilino]-[1,2,4]triazolo[1,5-a]pyridin-8-yl]-3,6-dihydro-2H-pyridine-1-carboxylate] | 11.3 |
| O=C(CCC(F)(F)F)N1CC=C(c2cccn3nc(Nc4ccc(C(=O)N5CCC6(CCCNC6)C5)cc4)nc23)CC1 (stereo not drawn) [Example 2-253, 1-[4-[2-[4-(2,9-diazaspiro[4.5]decane-2-carbonyl)anilino]-[1,2,4]triazolo[1,5-a]pyridin-8-yl]-3,6-dihydro-2H-pyridin-1-yl]-4,4,4-trifluoro-butan-1-one] | 151 |
| O=C(CCC(F)(F)F)N1CC=C(c2cccn3nc(Nc4ccc(C(=O)N5CCOC6(CCNCC6)C5)cc4)nc23)CC1 [Example 2-254, 4,4,4-trifluoro-1-[4-[2-[4-(1-oxa-4,9-diazaspiro[5.5]undecane-4-carbonyl)anilino]-[1,2,4]triazolo[1,5-a]pyridin-8-yl]-3,6-dihydro-2H-pyridin-1-yl]butan-1-one] | 588 |
| O=C(NC1CCNC1)c1ccc(Nc2nc3c(C4=CCN(C(=O)CCC(F)(F)F)CC4)cccn3n2)cc1 (stereo not drawn) [Example 2-255, N-pyrrolidin-3-yl-4-[[8-[1-(4,4,4-trifluorobutanoyl)-3,6-dihydro-2H-pyridin-4-yl][1,2,4]triazolo[1,5 a]pyridin-2-yl]amino]benzamide] | 297 |
| NC1CN(C(=O)c2ccc(Nc3nc4c(C5=CCN(C(=O)CCC(F)(F)F)CC5)cccn4n3)cc2)C1 [Example 2-256, 1-[4-[2-[4-(3-aminoazetidine-1-carbonyl)anilino]-[1,2,4]triazolo[1,5-a]pyridin-8-yl]-3,6-dihydro-2H-pyridin-1-yl]-4,4,4-trifluoro-butan-1-one] | 68.4 |
| O=C(CCC(F)(F)F)N1CC=C(c2cccn3nc(Nc4ccc(C(=O)N5CCCC56CCCNC6)cc4)nc23)CC1 (stereo not drawn) [Example 2-257, 1-[4-[2-[4-(1,9-diazaspiro[4.5]decane-1-carbonyl)anilino]-[1,2,4]triazolo[1,5-a]pyridin-8-yl]-3,6-dihydro-2H-pyridin-1-yl]-4,4,4-trifluoro-butan-1-one] | 60.5 |
| O=C(CCC(F)(F)F)N1CC=C(c2cccn3nc(Nc4ccc(C(=O)N5CCCC56CCNCC6)cc4)nc23)CC1 [Example 2-258, 1-[4-[2-[4-(1,8-diazaspiro[4.5]decane-1-carbonyl)anilino]-[1,2,4]triazolo[1,5-a]pyridin-8-yl]-3,6-dihydro-2H-pyridin-1-yl]-4,4,4-trifluoro-butan-1-one] | 238 |
| CN1CCOC2(C1)CN(C(=O)c1ccc(Nc3nc4c(C5=CCN(C(=O)CCC(F)(F)F)CC5)cccn4n3)cc1)C2 [Example 2-259, 4,4,4-trifluoro-1-[4-[2-[4-(8-methyl-5-oxa-2,8-diazaspiro[3.5]nonane-2-carbonyl)anilino]-[1,2,4]triazolo[1,5-a]pyridin-8-yl]-3,6-dihydro-2H-pyridin-1-yl]butan-1-one] | 5.8 |
| O=C(CCC(F)(F)F)N1CC=C(c2cccn3nc(Nc4ccc(C(=O)N5CCN(C6CCC6)CC5)cc4)nc23)CC1 [Example 2-260, 1-[4-[2-[4-(4-cyclobutylpiperazine-1-carbonyl)anilino]-[1,2,4]triazolo[1,5-a]pyridin-8-yl]-3,6-dihydro-2H-pyridin-1-yl]-4,4,4-trifluoro-butan-1-one] | 5.3 |
| CN(C)C(=O)C1(c2ccncc2)CCCN1C(=O)c1ccc(Nc2nc3c(C4=CCN(C(=O)CCC(F)(F)F)CC4)cccn3n2)cc1 (stereo not drawn) [Example 2-261, N,N-dimethyl-2-(4-pyridyl)-1-[4-[[8-[1-(4,4,4-trifluorobutanoyl)-3,6-dihydro-2H-pyridin-4-yl]-[1,2,4]triazolo[1,5-a]pyridin-2-yl]amino]benzoyl] pyrrolidine-2-carboxamide] | 46.5 |
| CN1CCN(C(=O)C2COCCN2C(=O)c2ccc(Nc3nc4c(C5=CCN(C(=O)CCC(F)(F)F)CC5)cccn4n3)cc2)CC1 (stereo not drawn) [Example 2-262, 4,4,4-trifluoro-1-[4-[2-[4-[3-(4-methylpiperazine-1-carbonyl)morpholine-4-carbonyl]anilino]-[1,2,4]triazolo[1,5-a]pyridin-8-yl]-3,6-dihydro-2H-pyridin-1-yl]butane-1-one] | 97.1 |
| CC1CC(C(=O)N2CC=C(c3cccn4nc(Nc5ccc(C(=O)N(C)C6CCN(C)CC6)cc5)nc34)CC2)C1 (stereo not drawn) [Example 2-263, N-methyl-4-[[8-[1-(3-methylcyclobutanecarbonyl)-3,6-dihydro-2H-pyridin-4-yl]-[1,2,4]triazolo[1,5-a]pyridin-2-yl]amino]-N-(1-methyl-4-piperidyl)benzamide] | 29.6 |
| CN1CCC(OC(=O)c2ccc(Nc3nc4c(C5=CCN(C(=O)CCC(F)(F)F)CC5)cccn4n3)cc2)CC1 [Example 2-264, (1-methyl-4-piperidyl) 4-[[8-[1-(4,4,4-trifluorobutanoyl)-3,6-dihydro-2H-pyridin-4-yl]-[1,2,4]triazolo[1,5-a]pyridin-2-yl]amino]benzoate] | 11.7 |
| CC(C)CN1CCN(C(=O)c2ccc(Nc3nc4c(C5=CCN(C(=O)CCC(F)(F)F)CC5)cccn4n3)cc2)CC1 [Example 2-266, 4,4,4-trifluoro-1-[4-[2-[4-(4-isobutylpiperazine-1-carbonyl)anilino]-[1,2,4]triazolo[1,5-a]pyridin-8-yl]-3,6-dihydro-2H-pyridin-1-yl]butan-1-one] | 9.7 |
